Assay results reported in patent publication US8618095B2 (Rigel Pharmaceuticals, Inc., priority 2010, dated 2013).
Where a name gives a salt, the structure may show the parent alone.

system: Human mast cells (CHMC); experiment: LD Tryptase release assay in CHMC (mast cell activation induced by FcγR cross-linking); format: cell-based; settings: Homo sapiens, Mast cell, anti-IgG stimulation, activity of tryptase released upon degranulation
Protocol: Compounds were assayed for inhibition of mast cell activation induced by FcγR cross-linking by measuring the activity of tryptase released upon degranulation as follows:
Human mast cells were cultured and differentiated from […] progenitor cell as described in U.S. Patent Publication No. 2005-234049, incorporated herein by reference. For example, 65 μL of various concentrations of the compound to be assayed were prepared in MT (137 mM NaCl, 2.7 mM KCl, 1.8 mM CaCl2, 1.0 mM MgCl2, 5.6 mM Glucose, 20 mM Hepes (pH 7.4), 0.1% Bovine Serum Albumin, (Sigma A4503)) containing 2% MeOH and 1% DMSO, or control buffer were added to duplicate 96-well V-bottom plates. Pelleted and re-suspended (in warm MT) CHMC cells (65 μL) were added to each 96-well plate, mixed and incubated for 1 hour at 37° C. 25 μl of 6× anti-IgG Rabbit anti-human IgG, Affinity purified (Bethyl Laboratories Cat No. A80-105A3) final concentration 1 μg/mL, was added to the test wells. MT (25 μL) was added to control wells. After a 60-minute incubation at 37° C., cells and cell debris were pelleted by centrifugation at 1000 rpm for 10 min and tryptase and leukotriene C4 levels were measured.
To measure tryptase levels, 25 μL of supernatant from each well was transferred to a fresh 96-well black bottom plate, to which 100 μL of fresh tryptase substrate solution [(Z-Ala-Lys-Arg-AMC2TFA; Enzyme Systems Products, #AMC-246)] 1:2000 in tryptase assay buffer [0.1 M Hepes (pH 7.5), 10% w/v Glycerol, 10 μM Heparin (Sigma H-4898) 0.01% NaN3] was added. After 30 minute incubation at room temperature, the optical density of the plates is measured at 355 nm/460 nm on a spectrophotometric plate reader. Table 1 provides the IC50 values.
Compounds of the disclosure were assayed for their ability to inhibit mast cell activation induced by FcγR cross-linking by measuring the activity of tryptase released upon degranulation. The IC50 values for the LD Tryptase assay are presented in Table 2, in which “0” is >100 μM; “A” is 1-100 μM; “B” is 0.5-1 μM; “C” is 0.1-0.5 μM; and “D” is less than 0.1 μM: […]

Row | IC50 [nM] | SMILES
1 | 100 to 500 | CC1(C)Oc2ccc(Nc3nc(Nc4ccc(N5CCC(N)CC5)cc4)ncc3F)nc2NC1=O [Compound 90, N4-(2,2-dimethyl-3,4-dihydro-3-oxo-2H-pyrido[3,2-b][1,4]oxazin-6-yl)-5-fluoro-N2-[4-(4-aminopiperidin-1-yl)phenyl]-2,4-pyrimidinediamine]
2 | 1000 to 100000 | CC1(C)Oc2ccc(Nc3nc(Nc4ccc(N5CCC(F)(F)CC5)cc4)ncc3F)nc2NC1=O [Compound 29, N4-(2,2-dimethyl-3,4-dihydro-3-oxo-2H-pyrido[3,2-b][1,4]oxazin-6-yl)-5-fluoro-N2-[4-(4,4-difluoro-1-piperidinyl)phenyl]-2,4-pyrimidinediamine]
3 | < 100 | COc1cc(Nc2ncc(F)c(Nc3ccc4c(n3)NC(=O)C(C)(C)O4)n2)ccc1N1CCOCC1 [Compound 27, N4-(2,2-dimethyl-3,4-dihydro-3-oxo-2H-pyrido[3,2-b][1,4]oxazin-6-yl)-5-fluoro-N2-[3-methoxy-4-morpholinophenyl]-2,4-pyrimidinediamine]
4 | 100 to 500 | C[C@H]1CN(c2ccc(Nc3ncc(F)c(Nc4ccc5c(n4)NC(=O)C(C)(C)O5)n3)cn2)CCO1 [Compound 94, N4-(2,2-dimethyl-3,4-dihydro-3-oxo-2H-pyrido[3,2-b][1,4]oxazin-6-yl)-5-fluoro-N2-[6-((2S)-2-methylmorpholino)pyridin-3-yl]-2,4-pyrimidinediamine]
5 | 1000 to 100000 | CC1(C)Oc2ccc(Nc3nc(Nc4ccc(N5CCCCC5)cc4)ncc3F)nc2NC1=O [Compound 78, N4-(2,2-dimethyl-3,4-dihydro-3-oxo-2H-pyrido[3,2-b][1,4]oxazin-6-yl)-5-fluoro-N2-[4-(piperidin-1-yl)phenyl]-2,4-pyrimidinediamine]
6 | 100 to 500 | Cc1ccc(Nc2ncc(F)c(Nc3ccc4c(n3)NC(=O)C(C)(C)O4)n2)cn1 [Compound 76, N4-(2,2-dimethyl-3,4-dihydro-3-oxo-2H-pyrido[3,2-b][1,4]oxazin-6-yl)-5-fluoro-N2-[6-methylpyridin-3-yl]-2,4-pyrimidinediamine]
7 | 100 to 500 | COc1cc(Nc2ncc(F)c(Nc3ccc4c(n3)NC(=O)C(C)(C)O4)n2)ccc1C1CCOCC1 [Compound 48, N4-(2,2-dimethyl-3,4-dihydro-3-oxo-2H-pyrido[3,2-b][1,4]oxazin-6-yl)-5-fluoro-N2-[-3-methoxy-4-tetrahydropyranophenyl]-2,4-pyrimidinediamine]
8 | 100 to 500 | COC1CCN(c2ccc(Nc3ncc(F)c(Nc4ccc5c(n4)NC(=O)C(C)(C)O5)n3)cn2)CC1 [Compound 53, N4-(2,2-dimethyl-3,4-dihydro-3-oxo-2H-pyrido[3,2-b][1,4]oxazin-6-yl)-5-fluoro-N2-[6-(4-methoxypiperidin-1-yl)pyridin-3-yl]-2,4-pyrimidinediamine]
9 | < 100 | CC1(C)CN(c2ccc(Nc3ncc(F)c(Nc4ccc5c(n4)NC(=O)CO5)n3)cc2)CCO1 [Compound 115, N4-(3,4-dihydro-3-oxo-2H-pyrido[3,2-b][1,4]oxazin-6-yl)-N2-[4-(2,2-dimethylmorpholino)phenyl]-5-fluoro-2,4-pyrimidinediamine]

Continued, compound first:

Row | SMILES | IC50 [nM]
10 | C[C@@H]1CN(c2ccc(Nc3ncc(F)c(Nc4ccc5c(n4)NC(=O)CO5)n3)cn2)C[C@H](C)O1 [Compound 95, rac-Cis-N4-(3,4-dihydro-3-oxo-2H-pyrido[3,2-b][1,4]oxazin-6-yl)-N2-[6-(2,6-dimethylmorpholino)pyridin-3-yl]-5-fluoro-2,4-pyrimidinediamine] | 100 to 500
11 | COc1cc(Nc2ncc(F)c(Nc3ccc4c(n3)NC(=O)CO4)n2)ccc1C1CCOCC1 [Compound 49, N4-(3,4-dihydro-3-oxo-2H-pyrido[3,2-b][1,4]oxazin-6-yl)-5-fluoro-N2-[-3-methoxy-4-tetrahydropyranophenyl]-2,4-pyrimidinediamine] | < 100
12 | O=C1COc2ccc(Nc3nc(Nc4ccc5c(c4)OCC4COCCN54)ncc3F)nc2N1 (stereo not drawn) [Compound 84, N4-(3,4-dihydro-3-oxo-2H-pyrido[3,2-b][1,4]oxazin-6-yl)-5-fluoro-N2-[1,2,4a,5-tetrahydro-4H-[1,4]oxazino[3,4-c][1,4]benzoxazin-8-yl]-2,4-pyrimidinediamine] | 100 to 500
13 | C[C@H]1CN(c2ccc(Nc3ncc(F)c(Nc4ccc5c(n4)NC(=O)C(C)(C)O5)n3)cn2)[C@@H](C)CO1 (racemic) [Compound 105, rac-N4-(2,2-dimethyl-3,4-dihydro-3-oxo-2H-pyrido[3,2-b][1,4]oxazin-6-yl)-5-N2-[6-(2,5-dimethylmorpholino)pyridin-3-yl]-5-fluoro-2,4-pyrimidinediamine] | 100 to 500
14 | Cc1cc(Nc2ncc(F)c(Nc3ccc4c(n3)NC(=O)CO4)n2)ccc1N1CCOCC1 [Compound 32] | < 100
15 | COc1cc(Nc2ncc(F)c(Nc3ccc4c(n3)NC(=O)C(C)(C)O4)n2)cnc1N1CCOCC1 [Compound 21, N4-(2,2-dimethyl-3,4-dihydro-3-oxo-2H-pyrido[3,2-b][1,4]oxazin-6-yl)-5-fluoro-N2-[5-methoxy-6-morpholinopyridin-3-yl]-2,4-pyrimidinediamine] | 100 to 500
16 | CC(C)[C@@H]1COC(=O)N1c1ccc(Nc2ncc(F)c(Nc3ccc4c(n3)NC(=O)C(C)(C)O4)n2)cn1 [Compound 73, N4-(2,2-dimethyl-3,4-dihydro-3-oxo-2H-pyrido[3,2-b][1,4]oxazin-6-yl)-5-fluoro-N2-[6-((4R)-4-isopropyl-2-oxooxazolidin-3-yl)pyridin-3-yl]-2,4-pyrimidinediamine] | 100 to 500
17 | CN1CCN(c2ccc(Nc3ncc(F)c(Nc4ccc5c(n4)NC(=O)CO5)n3)cn2)CC1 [Compound 19, N4-(3,4-dihydro-3-oxo-2H-pyrido[3,2-b][1,4]oxazin-6-yl)-5-fluoro-N2-[6-(4-methylpiperazin-1-yl)pyridin-3-yl]-2,4-pyrimidinediamine] | 1000 to 100000

same assay, conditions: anti-IgG stimulation, activity of tryptase released upon degranulation

Row | SMILES | IC50 [nM]
18 | C[C@H]1COCCN1c1ccc(Nc2ncc(F)c(Nc3ccc4c(n3)N(COP(=O)(O)O)C(=O)C(C)(C)O4)n2)cn1 [Compound 97, N4-(2,2-dimethyl-3,4-dihydro-4-[(dihydrogenphosphonoxy)methyl]-3-oxo-2H-pyrido[3,2-b][1,4]oxazin-6-yl)-5-fluoro-N2-[6-((3S)-3-methylmorpholino)pyridin-3-yl]-2,4-pyrimidinediamine disodium salt] | 1000 to 100000
19 | CC1(C)CN(c2ccc(Nc3ncc(F)c(Nc4ccc5c(n4)N(COP(=O)(O)O)C(=O)CO5)n3)cc2)CCO1 [Compound 129, N4-(3,4-dihydro-4-[(dihydrogenphosphonoxy)methyl]-3-oxo-2H-pyrido[3,2-b][1,4]oxazin-6-yl)-5-fluoro-N2-[4-(2,2-dimethylmorpholino)phenyl]-2,4-pyrimidinediamine disodium salt] | 1000 to 100000
20 | O=C1COc2ccc(Nc3nc(Nc4ccc(N5CCOCC5)cc4)ncc3F)nc2N1COP(=O)(O)O [Compound 114, N4-(3,4-dihydro-4-[(dihydrogenphosphonoxy)methyl]-3-oxo-2H-pyrido[3,2-b][1,4]oxazin-6-yl)-5-fluoro-N2-(4-morpholinophenyl)-2,4-pyrimidinediamine disodium salt] | 1000 to 100000
21 | CC1(C)Oc2ccc(Nc3nc(Nc4ccc(N5CCOCC5)nc4)ncc3F)nc2NC1=O [Compound 3, N4-(2,2-dimethyl-3,4-dihydro-3-oxo-2H-pyrido[3,2-b][1,4]oxazin-6-yl)-5-fluoro-N2-[6-morpholinopyridin-3-yl]-2,4-pyrimidinediamine] | < 100
